According to the supplement of paper PMC13380429:

How the values were obtained:
[1] = test system: A549-ACE2 infected with SARS-CoV-2; assay: cell count relative to DMSO; higher = less toxic; details: 24 h
[2] = test system: A549-ACE2 infected with SARS-CoV-2; assay: morphology score (similarity to uninfected cells); higher = more like uninfected cells; details: 24 h
[3] = test system: A549-ACE2; assay: phospholipidosis EC50; higher = less potent phospholipidosis inducer
[4] = test system: Caco-2; assay: cell viability relative to DMSO; higher = less toxic; details: 72 h
[5] = test system: Vero E6; assay: as above; details: 72 h
[6] = test system: Calu-3; assay: as above; details: 72 h
[7] = test system: U2OS; assay: as above; details: 72 h
[8] = test system: HepG2; assay: as above; details: 72 h
[9] = test system: A549-ACE2; assay: drug-induced phospholipidosis relative to tamoxifen; higher = more phospholipidosis
[10] = test system: A549-ACE2 infected with SARS-CoV-2; assay: SARS-CoV-2 infection rate relative to DMSO; higher = more infection; details: 24 h
[11] = test system: Caco-2; assay: drug sensitivity score (DSS) for viability; higher = more toxic; extreme values may be limits of the assay; details: 72 h
[12] = test system: Vero E6; assay: as above; details: 72 h
[13] = test system: Calu-3; assay: as above; details: 72 h
[14] = test system: U2OS; assay: as above; details: 72 h
[15] = test system: HepG2; assay: as above; details: 72 h
[16] = test system: Vero E6; assay: relative viability EC50 (midpoint between 100% and the lowest measured viability); higher = less toxic; details: 72 h
[17] = test system: Calu-3; assay: as above; details: 72 h
[18] = test system: U2OS; assay: as above; details: 72 h
[19] = test system: HepG2; assay: as above; details: 72 h
[20] = test system: Caco-2; assay: as above; details: 72 h

Cc1cccc(/C=N/Nc2cc(N3CCOCC3)nc(OCCc3ccccn3)n2)c1 [STA-5326]
Details | SARS-CoV-2 infection rate [%] | cell count [%] | cell viability [%] | morphology score | phospholipidosis EC50 [µM]
[1], 0.3 µM | – | 104 | – | – | –
[1], 3 µM | – | 95 | – | – | –
[1], 10 µM | – | 106 | – | – | –
[1], 30 µM | – | 108 | – | – | –
[2], 0.3 µM | – | – | – | -0.01 | –
[2], 3 µM | – | – | – | -0.14 | –
[2], 10 µM | – | – | – | 0 | –
[2], 30 µM | – | – | – | 0.18 | –
[3], 24 h | – | – | – | – | 0.3
[3], 48 h | – | – | – | – | 0.809
[3], 72 h | – | – | – | – | 0.687
[4], 1 nM | – | – | 91.2 | – | –
[4], 10 nM | – | – | 96.4 | – | –
[4], 100 nM | – | – | 94.7 | – | –
[4], 1000 nM | – | – | 78.9 | – | –
[4], 10000 nM | – | – | 60.8 | – | –
[5], 1 nM | – | – | 97.2 | – | –
[5], 10 nM | – | – | 104 | – | –
[5], 100 nM | – | – | 93.8 | – | –
[5], 1000 nM | – | – | 42.4 | – | –
[5], 10000 nM | – | – | 43.2 | – | –
[6], 1 nM | – | – | 104 | – | –
[6], 10 nM | – | – | 104 | – | –
[6], 100 nM | – | – | 97.9 | – | –
[6], 1000 nM | – | – | 93.6 | – | –
[6], 10000 nM | – | – | 90.1 | – | –
[7], 1 nM | – | – | 97.6 | – | –
[7], 10 nM | – | – | 100 | – | –
[7], 100 nM | – | – | 95 | – | –
[7], 1000 nM | – | – | 91.3 | – | –
[7], 10000 nM | – | – | 75.1 | – | –
[8], 1 nM | – | – | 99.3 | – | –
[8], 10 nM | – | – | 88.2 | – | –
[8], 100 nM | – | – | 93 | – | –
[8], 1000 nM | – | – | 26.2 | – | –
[8], 10000 nM | – | – | 19.7 | – | –
[10], 0.3 µM | 51 | – | – | – | –
[10], 3 µM | 77 | – | – | – | –
[10], 10 µM | 91 | – | – | – | –
[10], 30 µM | 35 | – | – | – | –

drug-induced phospholipidosis [%], [9]
Details | 0.3 µM | 0.833333 µM | 3.33333 µM | 6.66667 µM | 10 µM | 30 µM
24 h | 103 | 105 | 105 | 124 | 111 | 85.7
48 h | 104 | 80.8 | 58.2 | 63.7 | 66 | –
72 h | 113 | 59.5 | 34.8 | 46.3 | 59.3 | –

Details | drug sensitivity score | relative viability EC50 [µM]
[11] | 4.2 | –
[12] | 11.6 | –
[13] | 0 | –
[14] | 1.5 | –
[15] | 14.6 | –
[16] | – | 0.228
[17] | – | > 10
[18] | – | > 10
[19] | – | 0.308

Cc1cc(Nc2ccc(NC(=O)c3ccc(Nc4ccnc5ccccc45)cc3)cc2)nc(N)n1 [SGI-1027]
Details | SARS-CoV-2 infection rate [%] | cell count [%] | cell viability [%] | morphology score | phospholipidosis EC50 [µM]
[1], 0.1 µM | – | 106 | – | – | –
[1], 0.3 µM | – | 95 | – | – | –
[1], 1 µM | – | 106 | – | – | –
[1], 3 µM | – | 34 | – | – | –
[2], 0.1 µM | – | – | – | 0.25 | –
[2], 0.3 µM | – | – | – | -0.15 | –
[2], 1 µM | – | – | – | 0.65 | –
[2], 3 µM | – | – | – | 0.16 | –
[3], 24 h | – | – | – | – | 2.95
[3], 48 h | – | – | – | – | 3.26
[3], 72 h | – | – | – | – | 3.61
[4], 1 nM | – | – | 103 | – | –
[4], 10 nM | – | – | 114 | – | –
[4], 100 nM | – | – | 103 | – | –
[4], 1000 nM | – | – | 99.4 | – | –
[4], 10000 nM | – | – | 13.1 | – | –
[5], 1 nM | – | – | 96.9 | – | –
[5], 10 nM | – | – | 99 | – | –
[5], 100 nM | – | – | 94.7 | – | –
[5], 1000 nM | – | – | 96.6 | – | –
[5], 10000 nM | – | – | 63.9 | – | –
[6], 1 nM | – | – | 106 | – | –
[6], 10 nM | – | – | 109 | – | –
[6], 100 nM | – | – | 112 | – | –
[6], 1000 nM | – | – | 106 | – | –
[6], 10000 nM | – | – | 2.8 | – | –
[7], 1 nM | – | – | 98.1 | – | –
[7], 10 nM | – | – | 104 | – | –
[7], 100 nM | – | – | 103 | – | –
[7], 1000 nM | – | – | 104 | – | –
[7], 10000 nM | – | – | 1 | – | –
[8], 1 nM | – | – | 110 | – | –
[8], 10 nM | – | – | 108 | – | –
[8], 100 nM | – | – | 104 | – | –
[8], 1000 nM | – | – | 39.5 | – | –
[8], 10000 nM | – | – | -0.3 | – | –
[10], 0.1 µM | 91 | – | – | – | –
[10], 0.3 µM | 101 | – | – | – | –
[10], 1 µM | 59 | – | – | – | –
[10], 3 µM | 24 | – | – | – | –

drug-induced phospholipidosis [%], [9]
Details | 0.3 µM | 0.833333 µM | 3.33333 µM | 6.66667 µM
24 h | 6.15 | 4.67 | 40.2 | 55.8
48 h | 5.31 | 4.66 | 44.4 | 77.3
72 h | 4.09 | 2.03 | 32.5 | 76.8

Details | drug sensitivity score | relative viability EC50 [µM]
[11] | 4.9 | –
[12] | 2.3 | –
[13] | 5 | –
[14] | 5.2 | –
[15] | 12.6 | –
[17] | – | 3.48
[18] | – | 3.39
[19] | – | 0.844
[20] | – | 3.12

O=[N+]([O-])c1ccccc1S(=O)(=O)NCC1CCC(CNC[C@H]2CCc3ccccc3C2)CC1 (stereo not given in full) [NTNCB]
Details | SARS-CoV-2 infection rate [%] | cell count [%] | cell viability [%] | morphology score | phospholipidosis EC50 [µM]
[1], 0.1 µM | – | 101 | – | – | –
[1], 0.3 µM | – | 99 | – | – | –
[1], 1 µM | – | 103 | – | – | –
[1], 3 µM | – | 119 | – | – | –
[2], 0.1 µM | – | – | – | 0.29 | –
[2], 0.3 µM | – | – | – | -0.23 | –
[2], 1 µM | – | – | – | 0.28 | –
[2], 3 µM | – | – | – | 0.73 | –
[3], 24 h | – | – | – | – | 1.46
[3], 48 h | – | – | – | – | 3.21
[3], 72 h | – | – | – | – | 5.01
[4], 1 nM | – | – | 93.7 | – | –
[4], 10 nM | – | – | 95.2 | – | –
[4], 100 nM | – | – | 98.8 | – | –
[4], 1000 nM | – | – | 86.6 | – | –
[4], 10000 nM | – | – | 64.8 | – | –
[5], 1 nM | – | – | 94.9 | – | –
[5], 10 nM | – | – | 95.3 | – | –
[5], 100 nM | – | – | 89.8 | – | –
[5], 1000 nM | – | – | 94.5 | – | –
[5], 10000 nM | – | – | 79.2 | – | –
[6], 1 nM | – | – | 104 | – | –
[6], 10 nM | – | – | 103 | – | –
[6], 100 nM | – | – | 96.6 | – | –
[6], 1000 nM | – | – | 105 | – | –
[6], 10000 nM | – | – | 15 | – | –
[7], 1 nM | – | – | 96.2 | – | –
[7], 10 nM | – | – | 93 | – | –
[7], 100 nM | – | – | 99.6 | – | –
[7], 1000 nM | – | – | 94.9 | – | –
[7], 10000 nM | – | – | 72.5 | – | –
[8], 1 nM | – | – | 99.1 | – | –
[8], 10 nM | – | – | 96.6 | – | –
[8], 100 nM | – | – | 91 | – | –
[8], 1000 nM | – | – | 101 | – | –
[8], 10000 nM | – | – | 57.1 | – | –
[10], 0.1 µM | 90 | – | – | – | –
[10], 0.3 µM | 102 | – | – | – | –
[10], 1 µM | 84 | – | – | – | –
[10], 3 µM | 36 | – | – | – | –

drug-induced phospholipidosis [%], [9]
Details | 0.3 µM | 0.833333 µM | 3.33333 µM | 6.66667 µM | 10 µM | 30 µM
24 h | 2.25 | 13.4 | 66.1 | 101 | 91.2 | 45.6
48 h | 4.73 | 11.2 | 54.3 | 93.7 | 117 | 42.7
72 h | 6.41 | 10.5 | 45.9 | 102 | 126 | –

Details | drug sensitivity score | relative viability EC50 [µM]
[11] | 3.3 | –
[12] | 0.9 | –
[13] | 4.3 | –
[14] | 1.9 | –
[15] | 2.1 | –
[16] | – | > 10
[17] | – | 3.49
